Literature values as cited in patent US12358889B2, “Vaporizable alkaloid compositions and methods of use thereof” (Ready Mix Naturals, LLC, priority 2023, dated 2025).

Tests used:
[1] = target: TRPA1 (Homo sapiens, UniProt O75762)
[2] = target: T1, TRPV2 (Homo sapiens, UniProt Q9Y5S1); conditions: among phytocannabinoids
T1 sequence (Q9Y5S1 1-764): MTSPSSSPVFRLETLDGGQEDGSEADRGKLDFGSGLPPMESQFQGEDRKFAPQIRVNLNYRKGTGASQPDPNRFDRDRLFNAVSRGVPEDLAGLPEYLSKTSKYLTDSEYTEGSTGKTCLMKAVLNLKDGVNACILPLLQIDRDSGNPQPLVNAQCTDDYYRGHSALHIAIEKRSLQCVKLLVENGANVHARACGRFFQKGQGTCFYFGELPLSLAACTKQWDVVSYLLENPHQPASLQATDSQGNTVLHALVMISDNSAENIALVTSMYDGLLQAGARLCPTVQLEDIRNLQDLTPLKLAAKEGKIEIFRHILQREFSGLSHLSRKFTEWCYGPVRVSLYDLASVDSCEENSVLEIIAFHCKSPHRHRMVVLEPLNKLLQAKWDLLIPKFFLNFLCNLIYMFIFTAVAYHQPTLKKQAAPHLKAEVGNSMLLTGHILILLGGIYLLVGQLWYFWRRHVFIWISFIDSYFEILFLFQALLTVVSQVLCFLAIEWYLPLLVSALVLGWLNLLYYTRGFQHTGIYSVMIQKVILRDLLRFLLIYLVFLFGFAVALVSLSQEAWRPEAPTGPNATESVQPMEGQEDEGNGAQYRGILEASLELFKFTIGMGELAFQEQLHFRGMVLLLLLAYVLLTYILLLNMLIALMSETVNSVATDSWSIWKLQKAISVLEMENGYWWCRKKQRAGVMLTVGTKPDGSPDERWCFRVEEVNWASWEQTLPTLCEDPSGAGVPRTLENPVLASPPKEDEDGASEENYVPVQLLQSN

[3] = target: TRPV1 (Homo sapiens, UniProt Q8NER1); conditions: among phytocannabinoids
TRPV1, sequence (Q8NER1 whole entry, species assumed): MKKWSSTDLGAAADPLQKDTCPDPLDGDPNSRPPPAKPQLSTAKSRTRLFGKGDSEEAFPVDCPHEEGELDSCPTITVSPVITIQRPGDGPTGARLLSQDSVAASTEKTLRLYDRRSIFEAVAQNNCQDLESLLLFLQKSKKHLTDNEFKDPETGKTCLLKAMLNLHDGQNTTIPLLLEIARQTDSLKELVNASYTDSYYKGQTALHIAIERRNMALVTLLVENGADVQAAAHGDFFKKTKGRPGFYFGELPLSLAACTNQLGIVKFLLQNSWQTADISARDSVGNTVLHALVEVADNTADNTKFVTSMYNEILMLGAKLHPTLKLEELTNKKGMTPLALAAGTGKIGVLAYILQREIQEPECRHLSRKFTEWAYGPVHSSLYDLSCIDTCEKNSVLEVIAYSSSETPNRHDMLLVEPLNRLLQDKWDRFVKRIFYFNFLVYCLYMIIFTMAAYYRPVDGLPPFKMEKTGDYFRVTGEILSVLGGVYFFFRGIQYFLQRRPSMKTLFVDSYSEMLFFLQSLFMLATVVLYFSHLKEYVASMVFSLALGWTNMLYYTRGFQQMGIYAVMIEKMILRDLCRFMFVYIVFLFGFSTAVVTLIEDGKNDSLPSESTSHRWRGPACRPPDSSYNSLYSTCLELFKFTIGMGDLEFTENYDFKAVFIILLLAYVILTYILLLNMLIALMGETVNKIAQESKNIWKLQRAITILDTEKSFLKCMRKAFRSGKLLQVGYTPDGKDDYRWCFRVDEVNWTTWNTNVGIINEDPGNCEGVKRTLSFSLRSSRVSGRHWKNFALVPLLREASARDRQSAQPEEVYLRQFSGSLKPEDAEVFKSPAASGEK

TRPA1, sequence (O75762 whole entry, species assumed): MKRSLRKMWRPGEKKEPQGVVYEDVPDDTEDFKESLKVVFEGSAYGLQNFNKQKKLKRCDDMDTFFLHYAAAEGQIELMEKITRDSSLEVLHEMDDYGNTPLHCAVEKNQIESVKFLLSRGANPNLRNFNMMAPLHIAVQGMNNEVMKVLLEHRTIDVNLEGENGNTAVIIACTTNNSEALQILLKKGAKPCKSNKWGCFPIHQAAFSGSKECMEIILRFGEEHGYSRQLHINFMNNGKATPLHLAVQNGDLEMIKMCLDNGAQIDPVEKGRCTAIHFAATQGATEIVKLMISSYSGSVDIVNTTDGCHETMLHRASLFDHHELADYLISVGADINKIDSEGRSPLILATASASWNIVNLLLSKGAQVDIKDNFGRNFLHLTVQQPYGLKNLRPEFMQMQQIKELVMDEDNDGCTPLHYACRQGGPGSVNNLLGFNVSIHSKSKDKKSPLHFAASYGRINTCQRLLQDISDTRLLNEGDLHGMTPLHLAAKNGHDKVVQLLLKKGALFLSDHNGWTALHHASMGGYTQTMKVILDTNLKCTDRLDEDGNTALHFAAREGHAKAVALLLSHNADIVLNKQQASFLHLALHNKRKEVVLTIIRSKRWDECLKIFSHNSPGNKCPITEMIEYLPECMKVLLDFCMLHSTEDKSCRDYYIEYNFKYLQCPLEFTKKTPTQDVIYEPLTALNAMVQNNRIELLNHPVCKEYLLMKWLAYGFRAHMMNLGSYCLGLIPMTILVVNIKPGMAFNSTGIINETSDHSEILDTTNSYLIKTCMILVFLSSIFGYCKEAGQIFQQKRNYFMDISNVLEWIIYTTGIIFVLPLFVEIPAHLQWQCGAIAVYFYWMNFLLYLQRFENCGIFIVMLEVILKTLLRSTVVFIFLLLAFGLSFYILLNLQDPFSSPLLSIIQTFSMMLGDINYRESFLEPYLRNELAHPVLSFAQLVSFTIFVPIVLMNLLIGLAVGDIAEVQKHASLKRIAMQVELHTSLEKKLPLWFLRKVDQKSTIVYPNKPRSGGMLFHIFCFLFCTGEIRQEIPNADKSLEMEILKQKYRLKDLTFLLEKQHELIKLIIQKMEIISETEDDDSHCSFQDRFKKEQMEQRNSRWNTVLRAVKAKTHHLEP

| Structure (SMILES) | activation of TRPA1 [1] | activation of TRPV2 [2] | agonism of TRPV1 [3] |
| --- | --- | --- | --- |
| CN1CCCC1c1cccnc1 (stereo not shown) [nicotine] | known activator of TRPA1 | – | – |
| CCCCCc1cc(O)c2c(c1)OC(C)(C)[C@@H]1CCC(C)=C[C@@H]21 [Δ^9-THC, Δ^9-tetrahydrocannabinol] | also activates TRPA1 | most potent phytocannabinoid for activating TRPV2 | – |
| C=C(C)[C@@H]1CCC(C)=C[C@H]1c1c(O)cc(CCCCC)cc1O [CBD, cannabidiol] | – | – | most potent and efficacious phytocannabinoid agonist of TRPV1 |
